Test results published in DBAASP.
≈ marks a conversion by molar mass, not a printed value.

Key:
Test in all cases: ≥ marks a high value that may be exact or a test limit, other limits are often not marked, values filed in µg/mL are converted to µM
[1] = system: Acinetobacter baumannii ATCC BAA-747
Acinetobacter baumannii = system: Acinetobacter baumannii
[2] = system: Escherichia coli ATCC 25922
Escherichia coli = system: Escherichia coli
[3] = system: Klebsiella pneumoniae ATCC 700603
Klebsiella pneumoniae = system: Klebsiella pneumoniae
[4] = system: Pseudomonas aeruginosa ATCC 27853
Staphylococcus aureus MR = system: Staphylococcus aureus MR
[5] = system: Staphylococcus aureus NCTC 10442
Staphylococcus aureus = system: Staphylococcus aureus
Escherichia coli D31 = system: Escherichia coli D31
[6] = system: Listeria fleischmannii DSM 24998
Listeria grayi DSM 20601 = system: Listeria grayi DSM 20601
[7] = system: Listeria monocytogenes DSM 20600
[8] = system: Micrococcus luteus DSM 20030
[9] = system: Bacillus subtilis ATCC 6633
[10] = system: Candida albicans ATCC 90112
Enterobacter cloacae = system: Enterobacter cloacae
Enterococcus faecalis = system: Enterococcus faecalis
[11] = system: Escherichia coli NBRC 14237
[12] = system: Micrococcus luteus ATCC 10240
[13] = system: Micrococcus luteus NBRC 12708
Morganella morganii = system: Morganella morganii
Proteus mirabilis = system: Proteus mirabilis
[14] = system: Saccharomyces cerevisiae NBRC 10217
Saccharomyces cerevisiae = system: Saccharomyces cerevisiae
Serratia marcescens = system: Serratia marcescens
Shigella boydii = system: Shigella boydii
[15] = system: Staphylococcus aureus ATCC 25923
[16] = system: Staphylococcus aureus NBRC 12732
[17] = system: Stenotrophomonas maltophilia ATCC 13637
Streptococcus agalactiae = system: Streptococcus agalactiae
Streptococcus pyogenes = system: Streptococcus pyogenes
Bacillus subtilis SMY = system: Bacillus subtilis SMY
Bacillus subtilis = system: Bacillus subtilis
Candida albicans = system: Candida albicans
Cryptococcus neoformans = system: Cryptococcus neoformans
[18] = system: Escherichia coli ATCC 23716
Pseudomonas putida = system: Pseudomonas putida
Salmonella typhimurium = system: Salmonella typhimurium
Streptococcus mutans = system: Streptococcus mutans
Streptococcus pneumoniae = system: Streptococcus pneumoniae
[19] = system: Bacillus atrophaeus BM013
[20] = system: Bacillus licheniformis ATCC 21424
[21] = system: Pseudomonas aeruginosa PAO1
[22] = system: Salmonella enterica subsp. enterica serovar Enteritidis 706 RIVM
[23] = system: Staphylococcus aureus ATCC 29213
[24] = system: Staphylococcus aureus WKZ-2

CC[C@H](C)[C@H](NC(=O)[C@H](CCSC)NC(=O)[C@H](C)NC(=O)[C@@H]1CCCN1C(=O)[C@@H](NC(=O)[C@@H](NC(=O)[C@H](CCCCN)NC(=O)[C@@H](NC(=O)[C@H](CC(C)C)NC(=O)CNC(=O)CNC(=O)[C@H](CC(C)C)NC(=O)[C@@H](N)Cc1ccccc1)[C@@H](C)CC)[C@@H](C)CC)C(C)C)C(=O)N[C@@H](CS)C(=O)N[C@@H](C)C(=O)N[C@H](C(=O)N[C@H](C(=O)N[C@@H](CCCCN)C(=O)N[C@@H](CCCCN)C(=O)N[C@@H](CS)C(=O)N[C@@H](Cc1cnc[nH]1)C(=O)N[C@@H](Cc1cnc[nH]1)C(=O)N[C@@H](Cc1cnc[nH]1)C(=O)N[C@@H](Cc1cnc[nH]1)C(=O)N[C@@H](Cc1cnc[nH]1)C(=O)N[C@@H](Cc1cnc[nH]1)C(=O)O)[C@@H](C)O)C(C)C [FLGGLIKIVPAMICAVTKKCHHHHHH]
MIC [1]: 21.9 µM (≈ 64 µg/mL) | MIC (Acinetobacter baumannii): 10.9 µM (≈ 32 µg/mL) | MIC [2]: 10.9 µM (≈ 32 µg/mL) | MIC (Escherichia coli): 7.73 µM (≈ 22.6 µg/mL) | MIC [3]: 43.7 µM (≈ 128 µg/mL) | MIC (Klebsiella pneumoniae): 21.9 µM (≈ 64 µg/mL) | MIC [4]: 43.7 µM (≈ 128 µg/mL) | MIC (Staphylococcus aureus MR): 2.73 µM (≈ 8 µg/mL) | MIC [5]: 5.46 µM (≈ 16 µg/mL) | MIC (Staphylococcus aureus): 5.46 µM (≈ 16 µg/mL)

CC[C@H](C)[C@H](NC(=O)[C@H](C)NC(=O)[C@H](CO)NC(=O)[C@H](CCCCN)NC(=O)[C@@H]1CCCN1C(=O)[C@@H](NC(=O)[C@H](CCCCN)NC(=O)[C@H](CC(C)C)NC(=O)[C@H](CO)NC(=O)[C@H](CC(C)C)NC(=O)[C@H](CCCCN)NC(=O)[C@H](CC(C)C)NC(=O)[C@H](Cc1ccccc1)NC(=O)[C@@H]1CCCN1C(=O)[C@@H](N)Cc1ccccc1)[C@@H](C)CC)C(=O)N[C@@H](CCCCN)C(=O)N[C@@H](CO)C(=O)N[C@@H](C)C(=O)N[C@H](C(=O)N[C@@H](CCCCN)C(=O)N[C@@H](CCCN=C(N)N)C(=O)N[C@@H](CC(C)C)C(N)=O)[C@@H](C)CC [FPFLKLSLKIPKSAIKSAIKRL]
MIC (Escherichia coli D31): 8 µM (≈ 20 µg/mL) | MIC [6]: 30 µM (≈ 74.9 µg/mL) | MIC (Listeria grayi DSM 20601): 8 µM (≈ 20 µg/mL) | MIC [7]: 30 µM (≈ 74.9 µg/mL) | MIC [8]: 0.25 µM (≈ 0.625 µg/mL)

CC[C@H](C)[C@H](NC(=O)[C@H](CC(C)C)NC(=O)[C@@H]1CCCN1C(=O)[C@H](CC(C)C)NC(=O)[C@H](CCCCN)NC(=O)[C@H](CCCCN)NC(=O)[C@H](CC(C)C)NC(=O)[C@H](CC(C)C)NC(=O)[C@H](C)NC(=O)[C@@H](NC(=O)[C@H](Cc1ccccc1)NC(=O)CN)C(C)C)C(=O)N[C@@H](CC(C)C)C(=O)N[C@@H](CCCCN)C(=O)N[C@@H](Cc1cnc[nH]1)C(=O)N[C@@H](CC(C)C)C(=O)N[C@@H](Cc1cnc[nH]1)C(N)=O [GFVALLKKLPLILKHLH]
MIC (Acinetobacter baumannii): 3.75 µM (≈ 7.27 µg/mL) | MIC [9]: 3.75 µM (≈ 7.27 µg/mL) | MIC [10]: 7.5 µM (≈ 14.5 µg/mL) | MIC (Enterobacter cloacae): 7.5 µM (≈ 14.5 µg/mL) | MIC (Enterococcus faecalis): 15 µM (≈ 29.1 µg/mL) | MIC [2]: 3.75 µM (≈ 7.27 µg/mL) | MIC [11]: 3.12 µM (≈ 6.05 µg/mL) | MIC (Klebsiella pneumoniae): 3.75 µM (≈ 7.27 µg/mL) | MIC [12]: 1.9 µM (≈ 3.69 µg/mL) | MIC [13]: 3.12 µM (≈ 6.05 µg/mL) | MIC (Morganella morganii): 30 µM (≈ 58.2 µg/mL) | MIC (Proteus mirabilis): 30 µM (≈ 58.2 µg/mL) | MIC [4]: 7.5 µM (≈ 14.5 µg/mL) | MIC [14]: 6.25 µM (≈ 12.1 µg/mL) | MIC (Saccharomyces cerevisiae): 3.75 µM (≈ 7.27 µg/mL) | MIC (Serratia marcescens): 7.5 µM (≈ 14.5 µg/mL) | MIC (Shigella boydii): 3.75 µM (≈ 7.27 µg/mL) | MIC [15]: 15 µM (≈ 29.1 µg/mL) | MIC [16]: 1.57 µM (≈ 3.05 µg/mL) | MIC [17]: 3.75 µM (≈ 7.27 µg/mL) | MIC (Streptococcus agalactiae): 3.75 µM (≈ 7.27 µg/mL) | MIC (Streptococcus pyogenes): 3.75 µM (≈ 7.27 µg/mL)

CC(C)C[C@H](NC(=O)[C@H](CC(C)C)NC(=O)[C@H](CCCN=C(N)N)NC(=O)[C@H](Cc1cnc[nH]1)NC(=O)[C@@H](NC(=O)[C@H](CCCN=C(N)N)NC(=O)CNC(=O)[C@@H](NC(=O)[C@@H]1CCCN1C(=O)[C@@H](N)Cc1ccccc1)C(C)C)C(C)C)C(=O)N[C@@H](CCCN=C(N)N)C(=O)N[C@@H](CCCCN)C(=O)O [FPVGRVHRLLRK]
MIC (Bacillus subtilis SMY): ≥ 173 µM | MIC (Bacillus subtilis): 21.7 µM (≈ 32 µg/mL) | MIC (Candida albicans): 21.7 µM (≈ 32 µg/mL) | MIC (Cryptococcus neoformans): ≥ 43.3 µM | MIC [18]: ≥ 173 µM | MIC (Escherichia coli): 21.7 µM (≈ 32 µg/mL) | MIC (Pseudomonas putida): ≥ 43.3 µM | MIC (Saccharomyces cerevisiae): ≥ 43.3 µM | MIC (Salmonella typhimurium): 10.8 µM (≈ 16 µg/mL) | MIC (Serratia marcescens): 21.7 µM (≈ 32 µg/mL) | MIC (Staphylococcus aureus): 21.7 µM (≈ 32 µg/mL) | MIC (Streptococcus mutans): 21.7 µM (≈ 32 µg/mL) | MIC (Streptococcus pneumoniae): 21.7 µM (≈ 32 µg/mL)

CC[C@H](C)[C@H](NC(=O)[C@H](Cc1ccccc1)NC(=O)[C@H](CCCCN)NC(=O)[C@H](CC(C)C)NC(=O)[C@H](CCCCN)NC(=O)CNC(=O)[C@@H]1CCCN1C(=O)[C@H](CCCCN)NC(=O)[C@H](CC(C)C)NC(=O)[C@H](C)NC(=O)[C@@H](NC(=O)[C@H](Cc1cnc[nH]1)NC(=O)[C@@H]1CCCN1)C(C)C)C(=O)N[C@H](C(=O)N1CCC[C@H]1C(=O)N[C@@H](CO)C(=O)N1CCC[C@H]1C(=O)N[C@@H](CCCCN)C(=O)N[C@@H](CCCN=C(N)N)C(=O)N1CCC[C@H]1C(=O)N[C@H](C(=O)N[C@@H](CCCCN)C(=O)N[C@@H](CC(C)C)C(=O)N[C@@H](CC(C)C)C(=O)N[C@@H](CO)C(=O)NCC(=O)O)C(C)C)[C@@H](C)CC [PHVALKPGKLKFIIPSPKRPVKLLSG]
MIC [19]: 2.5 µM (≈ 7.05 µg/mL) | MIC [20]: 1.25 µM (≈ 3.53 µg/mL) | MIC [2]: 10 µM (≈ 28.2 µg/mL) | MIC [4]: > 40 µM | MIC [21]: 20 µM (≈ 56.4 µg/mL) | MIC [22]: ≥ 40 µM | MIC [23]: > 40 µM | MIC [24]: ≥ 40 µM
